Experimental data as given in patent US20240140957A1, “BRIDGED COMPOUNDS AS KRAS G12D INHIBITOR AND DEGRADER AND THE USE THEREOF” (BeiGene Switzerland GmbH, priority 2021, published 2024).

These compounds were tested against GDP-loaded KRAS G12D (Homo sapiens, UniProt P01116, G12D) (assay: KRAS G12D Probe Displacement Assay). Settings: KRAS G12D 0.5 nM, biotinylated probe 2 4 nM; Table 6 letters; read-out: KRAS G12D Probe Displacement Assay IC50 (class).
Format: binding

GDP-loaded KRAS G12D, sequence (P01116 1-188 isoform P01116-2 G12D): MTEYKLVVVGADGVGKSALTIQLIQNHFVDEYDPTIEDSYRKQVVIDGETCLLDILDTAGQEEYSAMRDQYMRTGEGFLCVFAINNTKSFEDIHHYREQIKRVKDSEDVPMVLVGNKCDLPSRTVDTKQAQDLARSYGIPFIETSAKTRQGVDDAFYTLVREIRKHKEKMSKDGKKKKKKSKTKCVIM

Row | IC50 | SMILES
1 | 50 to 100 nM | Cc1cc(N)nc(-c2c(Cl)cc3c(N4CC5CCC(C4)N5)nc(OCC4(C#N)CCCC4)nc3c2F)c1C(F)(F)F [Example E199, 1-(((7-(6-amino-4-methyl-3-(trifluoromethyl)pyridin-2-yl)-4-(3,8-diazabicyclo[3.2.1]octan-3-yl)-6-chloro-8-fluoroquinazolin-2-yl)oxy)methyl)cyclopentane-1-carbonitrile]
2 | < 50 nM | Cc1cc(N)nc(-c2c(Cl)cc3c(N4CC5CCC(C4)N5)nc(OCC4(CO)CCC4)nc3c2F)c1C(F)(F)F [Example E200, (1-(((7-(6-amino-4-methyl-3-(trifluoromethyl)pyridin-2-yl)-4-(3,8-diazabicyclo[3.2.1]octan-3-yl)-6-chloro-8-fluoroquinazolin-2-yl)oxy)methyl)cyclobutyl) methanol]
3 | 100 to 1000 nM | Cc1cc(N)nc(-c2c(Cl)cc3c(N4CC5CCC(C4)N5)nc(OCC4(C)CCCOC4)nc3c2F)c1C(F)(F)F (stereo not shown) [Example E201, 6-(4-(3,8-diazabicyclo[3.2.1]octan-3-yl)-6-chloro-8-fluoro-2-((3-methyltetrahydro-2H-pyran-3-yl)methoxy)quinazolin-7-yl)-4-methyl-5-(trifluoromethyl)pyridin-2-amine]
4 | 50 to 100 nM | Cc1cc(N)nc(-c2c(Cl)cc3c(N4CC5CCC(C4)N5)nc(OCC4(C)CCOCC4)nc3c2F)c1C(F)(F)F [Example E202, 6-(4-(3,8-diazabicyclo[3.2.1]octan-3-yl)-6-chloro-8-fluoro-2-((4-methyltetrahydro-2H-pyran-4-yl)methoxy)quinazolin-7-yl)-4-methyl-5-(trifluoromethyl)pyridin-2-amine]
5 | 50 to 100 nM | Cc1cc(N)nc(-c2c(Cl)cc3c(N4CC5CCC(C4)N5)nc(OCC4(C)CCOC4)nc3c2F)c1C(F)(F)F (stereo not shown) [Example E203, 6-(4-(3,8-diazabicyclo[3.2.1]octan-3-yl)-6-chloro-8-fluoro-2-((3-methyltetrahydrofuran-3-yl)methoxy)quinazolin-7-yl)-4-methyl-5-(trifluoromethyl)pyridin-2-amine]
6 | < 50 nM | COCC(C#N)(CO)COc1nc(N2CC3CCC(C2)N3)c2cc(Cl)c(-c3nc(N)cc(C)c3C(F)(F)F)c(F)c2n1 (stereo not shown) [Example E204, 3-((7-(6-amino-4-methyl-3-(trifluoromethyl)pyridin-2-yl)-4-(3,8-diazabicyclo [3.2.1]octan-3-yl)-6-chloro-8-fluoroquinazolin-2-yl)oxy)-2-(hydroxymethyl)-2-(methoxymethyl)propanenitrile]
7 | < 50 nM | Cc1cc(N)nc(-c2c(Cl)cc3c(N4CC5CCC(C4)N5)nc(OCC(C#N)(CO)CO)nc3c2F)c1C(F)(F)F [Example E205, 3-((7-(6-amino-4-methyl-3-(trifluoromethyl)pyridin-2-yl)-4-(3,8-diazabicyclo [3.2.1]octan-3-yl)-6-chloro-8-fluoroquinazolin-2-yl)oxy)-2,2-bis(hydroxymethyl) propanenitrile]
8 | < 50 nM | Cc1cc(N)nc(-c2c(Cl)cc3c(N4CC5CCC(C4)N5)nc(OCC4(C#N)CCOC4)nc3c2F)c1C(F)(F)F (stereo not shown) [Example E206, 3-(((7-(6-amino-4-methyl-3-(trifluoromethyl)pyridin-2-yl)-4-(3,8-diazabicyclo[3.2.1]octan-3-yl)-6-chloro-8-fluoroquinazolin-2-yl)oxy)methyl)tetrahydrofuran-3-carbonitrile]
9 | < 50 nM | Cc1cc(N)nc(-c2c(Cl)cc3c(N4CC5CCC(C4)N5)nc(OCC4(C)CCC(=O)N4)nc3c2F)c1C(F)(F)F (stereo not shown) [Example E207, 5-(((7-(6-amino-4-methyl-3-(trifluoromethyl)pyridin-2-yl)-4-(3,8-diazabicyclo[3.2.1]octan-3-yl)-6-chloro-8-fluoroquinazolin-2-yl)oxy)methyl)-5-methylpyrrolidin-2-one]
10 | < 50 nM | Cc1cc(N)nc(-c2c(Cl)cc3c(N4CC5CCC(C4)N5)nc(OCC4(C)CNC(=O)C4)nc3c2F)c1C(F)(F)F (stereo not shown) [Example E208, 4-(((7-(6-amino-4-methyl-3-(trifluoromethyl)pyridin-2-yl)-4-(3,8-diazabicyclo[3.2.1]octan-3-yl)-6-chloro-8-fluoroquinazolin-2-yl)oxy)methyl)-4-methylpyrrolidin-2-one]
11 | < 50 nM | Nc1nc2c(-c3c(C(F)(F)F)cc4c(N5CC6CCC(C5)N6)nc(OCC5COCC5O)nc4c3F)ccc(F)c2s1 (stereo not shown) [Example E209, 4-(((7-(2-amino-7-fluorobenzo[d]thiazol-4-yl)-4-(3,8-diazabicyclo [3.2.1]octan-3-yl)-8-fluoro-6-(trifluoromethyl)quinazolin-2-yl)oxy)methyl)tetrahydrofuran-3-ol]
12 | < 50 nM | Nc1nc2c(-c3c(C(F)(F)F)cc4c(N5CC6CCC(C5)N6)nc(OCC5C6COCC65)nc4c3F)ccc(F)c2s1 (stereo not shown) [Example E210, 4-(2-((3-oxabicyclo[3.1.0]hexan-6-yl)methoxy)-4-(3,8-diazabicyclo[3.2.1]octan-3-yl)-8-fluoro-6-(trifluoromethyl)quinazolin-7-yl)-7-fluorobenzo[d]thiazol-2-amine]
13 | < 50 nM | N#CC1(COc2nc(N3CC4CCC(C3)N4)c3cc(C(F)(F)F)c(-c4ccc(F)c5sc(N)nc45)c(F)c3n2)CCOC1 (stereo not shown) [Example E211, 3-(((7-(2-amino-7-fluorobenzo[d]thiazol-4-yl)-4-(3,8-diazabicyclo [3.2.1]octan-3-yl)-8-fluoro-6-(trifluoromethyl)quinazolin-2-yl)oxy)methyl)tetrahydrofuran-3-carbonitrile]
14 | < 50 nM | CC1(COc2nc(N3CC4CCC(C3)N4)c3cc(C(F)(F)F)c(-c4ccc(F)c5sc(N)nc45)c(F)c3n2)CCC(=O)N1 (stereo not shown) [Example E212, 5-(((7-(2-amino-7-fluorobenzo[d]thiazol-4-yl)-4-(3,8-diazabicyclo[3.2.1]octan-3-yl)-8-fluoro-6-(trifluoromethyl)quinazolin-2-yl)oxy)methyl)-5-methylpyrrolidin-2-one]
15 | < 50 nM | Nc1nc2c(-c3c(C(F)(F)F)cc4c(N5CC6CCC(C5)N6)nc(OCC5CCCCC5O)nc4c3F)ccc(F)c2s1 (stereo not shown) [Example E213, 2-(((7-(2-amino-7-fluorobenzo[d]thiazol-4-yl)-4-(3,8-diazabicyclo[3.2.1]octan-3-yl)-8-fluoro-6-(trifluoromethyl)quinazolin-2-yl)oxy)methyl)cyclohexan-1-ol]
16 | < 50 nM | N#CC1(COc2nc(N3CC4CCC(C3)N4)c3cc(C(F)(F)F)c(-c4ccc(F)c5sc(N)nc45)c(F)c3n2)CCC1 [Example E214, 1-(((7-(2-amino-7-fluorobenzo[d]thiazol-4-yl)-4-(3,8-diazabicyclo [3.2.1]octan-3-yl)-8-fluoro-6-(trifluoromethyl)quinazolin-2-yl)oxy)methyl)cyclobutane-1-carbonitrile]
17 | < 50 nM | CC1(COc2nc(N3CC4CCC(C3)N4)c3cc(C(F)(F)F)c(-c4ccc(F)c5sc(N)nc45)c(F)c3n2)COCCO1 (stereo not shown) [Example E215, 4-(4-(3,8-diazabicyclo[3.2.1]octan-3-yl)-8-fluoro-2-((2-methyl-1,4-dioxan-2-yl)methoxy)-6-(trifluoromethyl)quinazolin-7-yl)-7-fluorobenzo[d]thiazol-2-amine]
18 | < 50 nM | Nc1nc2c(-c3c(C(F)(F)F)cc4c(N5CC6CCC(C5)N6)nc(OCC5CCCOC5)nc4c3F)ccc(F)c2s1 (stereo not shown) [Example E216, 4-(4-(3,8-diazabicyclo[3.2.1]octan-3-yl)-8-fluoro-2-((tetrahydro-2H-pyran-3-yl)methoxy)-6-(trifluoromethyl)quinazolin-7-yl)-7-fluorobenzo[d]thiazol-2-amine]
19 | < 50 nM | Nc1nc2c(-c3c(C(F)(F)F)cc4c(N5CC6CCC(C5)N6)nc(OCC56COCC5C6)nc4c3F)ccc(F)c2s1 (stereo not shown) [Example E217, 4-(2-((3-oxabicyclo[3.1.0]hexan-1-yl)methoxy)-4-(3,8-diazabicyclo[3.2.1]octan-3-yl)-8-fluoro-6-(trifluoromethyl)quinazolin-7-yl)-7-fluorobenzo[d]thiazol-2-amine]
20 | < 50 nM | Nc1nc2c(-c3c(C(F)(F)F)cc4c(N5CC6CCC(C5)N6)nc(OCC5(F)CCOCC5)nc4c3F)ccc(F)c2s1 [Example E218, 4-(4-(3,8-diazabicyclo[3.2.1]octan-3-yl)-8-fluoro-2-((4-fluorotetra hydro-2H-pyran-4-yl)methoxy)-6-(trifluoromethyl)quinazolin-7-yl)-7-fluorobenzo[d]thiazol-2-amine]
21 | < 50 nM | Nc1nc2c(-c3c(C(F)(F)F)cc4c(N5CC6CCC(C5)N6)nc(OC[C@@H]5COCCO5)nc4c3F)ccc(F)c2s1 [Example E219, 4-(2-(((S)-1,4-dioxan-2-yl)methoxy)-4-(3,8-diazabicyclo[3.2.1]octan-3-yl)-8-fluoro-6-(trifluoromethyl)quinazolin-7-yl)-7-fluorobenzo[d]thiazol-2-amine]
22 | 50 to 100 nM | Nc1nc2c(-c3c(C(F)(F)F)cc4c(N5CC6CCC(C5)N6)nc(OCC5CCCC5O)nc4c3F)ccc(F)c2s1 (stereo not shown) [Example E220]
23 | < 50 nM | Nc1nc2c(-c3c(C(F)(F)F)cc4c(N5CC6CCC(C5)N6)nc(OCC5(O)CCOCC5)nc4c3F)ccc(F)c2s1 [Example E221, 4-(((7-(2-amino-7-fluorobenzo[d]thiazol-4-yl)-4-(3,8-diazabicyclo [3.2.1]octan-3-yl)-8-fluoro-6-(trifluoromethyl)quinazolin-2-yl)oxy)methyl)tetrahydro-2H-pyran-4-ol]
24 | < 50 nM | Nc1nc2c(-c3c(C(F)(F)F)cc4c(N5CC6CCC(C5)N6)nc(OCC56CC(O)(C5)C6)nc4c3F)ccc(F)c2s1 [Example E222, 3-(((7-(2-amino-7-fluorobenzo[d]thiazol-4-yl)-4-(3,8-diazabicyclo [3.2.1]octan-3-yl)-8-fluoro-6-(trifluoromethyl)quinazolin-2-yl)oxy)methyl)bicyclo[1.1.1]pentan-1-ol]
25 | < 50 nM | CC(=O)N1CCCC(COc2nc(N3CC4CCC(C3)N4)c3cc(C(F)(F)F)c(-c4ccc(F)c5sc(N)nc45)c(F)c3n2)C1 (stereo not shown) [Example E223, 1-(3-(((7-(2-amino-7-fluorobenzo[d]thiazol-4-yl)-4-(3,8-diazabicyclo[3.2.1]octan-3-yl)-8-fluoro-6-(trifluoromethyl)quinazolin-2-yl)oxy)methyl)piperidin-1-yl)ethan-1-one]
